This assay addresses T1, stearoyl-CoA desaturase (SCD) (Rattus norvegicus, UniProt P07308).
T1 construct: from tissue; host or cells: liver microsomes of male Sprague Dawley rats, with SCD induced by a carbohydrate-rich diet after fasting/feeding cycles
T1 sequence (P07308 1-358): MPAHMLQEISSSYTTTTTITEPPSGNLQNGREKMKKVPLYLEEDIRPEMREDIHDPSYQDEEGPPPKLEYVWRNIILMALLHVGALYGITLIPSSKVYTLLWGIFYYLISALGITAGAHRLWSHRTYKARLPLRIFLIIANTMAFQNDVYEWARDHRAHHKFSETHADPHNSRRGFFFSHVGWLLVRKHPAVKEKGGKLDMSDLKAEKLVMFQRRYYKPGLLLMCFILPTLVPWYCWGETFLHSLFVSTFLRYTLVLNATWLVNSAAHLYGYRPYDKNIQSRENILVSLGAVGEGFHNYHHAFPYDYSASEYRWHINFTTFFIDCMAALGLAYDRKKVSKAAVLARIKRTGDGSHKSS
As to the kind of experiment: SCD assay in rat liver microsomes ([3H]stearoyl CoA desaturation, adapted from Talamo and Bloch). It counts as biochemical. The note with it: rat liver microsomes 0.2 mg/ml assay final, 30 min preincubation, 45 min reaction, room temperature. The source says:
The identification of compounds of the invention as SCD inhibitors was readily accomplished using the SCD enzyme and microsomal assay procedure described in Talamo and Bloch (1969) Analytical Biochemistry 29:300-304.
The rat liver microsomes were collected according to the procedure described in Ozols (1990) Methods Enzm, 182:225.
Male Spraque Dawley Rats were placed on regimented fasting protocol for one week to stimulate SCD enzymatic activity. 48-hour periods were alternated between feeding and fasting to induce and down-regulate SCD activity with SCD activity being induced via carbohydrate rich diet prior to liver perfusion and collection.
The rats were anesthetized with Isoflurane inhalation anesthetic, the liver perfused with cold phosphate buffered saline (PBS), weighed, and chilled in cold homogenization buffer (250 mM sucrose, 10 mM Tris, 1 mM EDTA, pH 7.6.
The livers were finely minced and placed in homogenization tube. 40 mL of homogenization buffer was added to the homogenization tube and the liver homogenized and centrifuged in a pre-chilled […] for 10 min at 4° C.
Following centrifugation, the supernatant was collected and the pellet removed and discarded. The supernatant was centrifuge at 10,000 G for 35 minutes. Following centrifugation, the supernatant was collect and the pellet discarded. The supernatant was then centrifuged in a pre-chilled 45-Ti rotor at 130,000 G (41,000 RPM) for 90 minutes at 4° C.
The supernatant was then aspirated off and the collected microsomal pellet washed in 25 mL of Glycerol PBS (1×PBS 7.4, 20% Glycerol) and resuspended in 4-5 volumes of Glycerol PBS.
The protein concentration of the microsomal preparation was determined by BCA assay (Pierce) and the microsomes were aliquoted and stored at −80° C.
Biobeads were ground to a smaller size in a mortar and pestle and resuspended in 3.6% TCA. The beads were then filtered through […] mesh.
SCD was determined in the desaturase assay buffer. This assay buffer contained 0.1 M Tris buffer, pH 7.2, 2 mM NADH, 4.8 mM ATP, 0.5 mM CoA, 4.8 mM MgCl2, and 0.1% BSA.
The Procedure for the SCD Assay (Adapted from Talamo and Bloch (1969) Analytical Biochemistry 29:300-304)
1 μl of each compound of Formula I was added to an assay plate by a low volume (0.5-10 μL) multichannel pipette. A DMSO control was also prepared. The microsomes were quickly thawed and added to assay buffer so that a concentration of 0.4 mg/ml was achieved (0.2 mg/ml assay final). 50 μl of the microsome suspension in assay buffer was then added into each well in the compound assay plate, the plate was covered, and the microsomes preincubated with the compounds for 30 minutes on the orbital shaker, 50-75 rpm, at room temperature.
After preincubation, the reaction was initiated by the addition of 50 μl of substrate solution (20 μM Stearoyl CoA, [3H]Stearoyl CoA, 74 nCi) to the preincubated microsomes/compound suspensions in MilliQ (Millipore) H2O. The reaction mixtures were then incubated for 45 minutes on the orbital shaker at 50-75 rpm at room temperature.
The reaction was terminated by the addition of 10 μl of 21% […] (TCA) to the reaction mixture followed incubation on the orbital shaker for 30 minutes at 50-75 rpm at room temperature followed by centrifugation for 5 minutes at 3700 rpm.
50 μl of a 6% Bio-Bead suspension in H2O was added to the reaction mixture and the assay plate was sealed. The Bio-Bead mixture was incubated on the orbital shaker for 1 hour, 100-150 rpm at room temperature, and then the mixture was centrifuged at 2000 g for 5 minutes to pellet the Bio-Beads.
25 μl of the supernatant was harvested from each well and transferred to a detection plate. 100 μl of OptiPhase SuperMix scinitillation cocktail (containing sufficient NaOH to neutralize the TCA) was added and the solutions mixed by vigorous shaking (300-400 rpm) for 5 minutes at room temperature. […]

Molecules are shown by their SMILES.

For orientation: IC50 means the concentration that gives 50% inhibition. Low readings indicate higher potency, high ones lower potency. In the case of `COc1ccc(-c2nc3cnc(NCc4cccc(Cl)c4)nc3n(CCNC(C)=O)c2=O)cc1` [Compound 24, N-[2-(2-{[(3-chlorophenyl)methyl]amino}-6-(4-methoxyphenyl)-7-oxo-8-hydropteridin-8-yl)ethyl]acetamide], it took 1300 nM to reach half-maximal inhibition (IC50).

Regarding `CC(=O)NCCn1c(=O)cnc2cnc(NCc3cccc(Cl)c3)nc21` [Compound 25, N-[2-(2-{[(3-chlorophenyl)methyl]amino}-7-oxo-8-hydropteridin-8-yl)ethyl]acetamide], the IC50 was 10000 nM.

Turning to `CC(=O)NCCn1c(=O)c(-c2ccc(Cl)cc2)nc2cnc(NCc3cccc(Cl)c3)nc21` [Compound 26, N-[2-(6-(4-chlorophenyl)-2-{[(3-chlorophenyl)methyl]amino}-7-oxo-8-hydropteridin-8-yl)ethyl]acetamide], the half-maximal inhibitory concentration (IC50) amounted to 7800 nM.

Molecule `CC(=O)NCCn1c(=O)c(-c2cccnc2)nc2cnc(NCc3cccc(Cl)c3)nc21` [Compound 27, N-[2-(2-{[(3-chlorophenyl)methyl]amino}-7-oxo-6-(3-pyridyl)-8-hydropteridin-8-yl)ethyl]acetamide] registered an IC50 of 9100 nM.

`CC(=O)NCCn1c(=O)cnc2cnc(NCc3ccc(Cl)cc3)nc21` [Compound 28, N-[2-(2-{[(4-chlorophenyl)methyl]amino}-7-oxo-8-hydropteridin-8-yl)ethyl]acetamide] yielded an IC50 of 21900 nM.

In turn, `COc1ccc(-c2nc3cnc(NCc4ccc(Cl)c(Cl)c4)nc3n(CCNC(=O)c3ccc(F)cc3)c2=O)cc1` [Compound 29, N-[2-(2-{[(3,4-dichlorophenyl)methyl]amino}-6-(4-methoxyphenyl)-7-oxo(8-hydropteridin-8-yl))ethyl](4-fluorophenyl)carboxamide] registered an IC50 of 430 nM.

For `COc1ccc(-c2nc3cnc(NCc4ccc(Cl)c(Cl)c4)nc3n(CCNC(=O)c3cccc(C)c3)c2=O)cc1` [Compound 30, N-[2-(2-{[(3,4-dichlorophenyl)methyl]amino}-6-(4-methoxyphenyl)-7-oxo(8-hydropteridin-8-yl))ethyl](3-methylphenyl)carboxamide], inhibition was half-maximal at 3270 nM (IC50).

As to `COc1ccc(-c2nc3cnc(NCc4ccc(Cl)c(Cl)c4)nc3n(CCNC(=O)c3ccco3)c2=O)cc1` [Compound 31, N-[2-(2-{[(3,4-dichlorophenyl)methyl]amino}-6-(4-methoxyphenyl)-7-oxo(8-hydropteridin-8-yl))ethyl]-2-furylcarboxamide], the midpoint of inhibition, the IC50, lay at 2260 nM.

`CC(=O)NCCn1c(=O)c(-c2ccc(Cl)cc2)nc2cnc(NCc3ccc(Cl)c(Cl)c3)nc21` [Compound 32, N-[2-(2-{[(3,4-dichlorophenyl)methyl]amino}-6-(4-chlorophenyl)-7-oxo-8-hydropteridin-8-yl)ethyl]acetamide]: the IC50 was found to be 1890 nM.

In the case of `CC(=O)NCCn1c(=O)c(-c2ccc(Cl)cc2)nc2cnc(NCc3ccc(F)cc3)nc21` [Compound 33, N-[2-(6-(4-chlorophenyl)-2-{[(4-fluorophenyl)methyl]amino}-7-oxo-8-hydropteridin-8-yl)ethyl]acetamide], the IC50 was 1800 nM.

For `O=C(NCCn1c(=O)cnc2cnc(NCc3ccc(Cl)c(Cl)c3)nc21)c1ccccc1` [Compound 34, N-[2-(2-{[(3,4-dichlorophenyl)methyl]amino}-7-oxo(8-hydropteridin-8-yl))ethyl]benzamide], the 50% inhibitory concentration (IC50) came out at 2720 nM.

`O=C(NCCn1c(=O)cnc2cnc(NCc3ccc(Cl)c(Cl)c3)nc21)c1ccsc1` [Compound 35, N-[2-(2-{[(3,4-dichlorophenyl)methyl]amino}-7-oxo(8-hydropteridin-8-yl))ethyl]-3-thienylcarboxamide]: it took 6120 nM to reach half-maximal inhibition (IC50).

With `O=C(NCCn1c(=O)c(-c2cccnc2)nc2cnc(NCc3ccc(Cl)c(Cl)c3)nc21)c1ccccc1` [Compound 36, N-[2-(2-{[(3,4-dichlorophenyl)methyl]amino}-7-oxo-6-(3-pyridyl)(8-hydropteridin-8-yl))ethyl]benzamide], the IC50 turned out to be 4060 nM.

The molecule `O=C(NCCn1c(=O)c(-c2cccnc2)nc2cnc(NCc3ccc(Cl)c(Cl)c3)nc21)c1ccsc1` [Compound 37, N-[2-(2-{[(3,4-dichlorophenyl)methyl]amino}-7-oxo-6-(3-pyridyl)(8-hydropteridin-8-yl))ethyl]-3-thienylcarboxamide] had a half-maximal inhibitory concentration (IC50) of 5010 nM.

Consider `O=C(NCCn1c(=O)c(-c2cccnc2)nc2cnc(NCc3ccc(Cl)c(Cl)c3)nc21)c1ccc(F)cc1` [Compound 38, N-[2-(2-{[(3,4-dichlorophenyl)methyl]amino}-7-oxo-6-(3-pyridyl)(8-hydropteridin-8-yl))ethyl](4-fluorophenyl)carboxamide], for which half-maximal inhibition (IC50) was put at 1180 nM.

As to `COc1ccc(-c2nc3cnc(NCc4ccc(Cl)c(Cl)c4)nc3n(CCNC(=O)c3ccncc3)c2=O)cc1` [Compound 39, N-[2-(2-{[(3,4-dichlorophenyl)methyl]amino}-6-(4-methoxyphenyl)-7-oxo(8-hydropteridin-8-yl))ethyl]-4-pyridylcarboxamide], the IC50 was found to be 2800 nM.

For the molecule `C/C=C/C(=O)NCCn1c(=O)c(-c2ccc(OC)cc2)nc2cnc(NCc3ccc(Cl)c(Cl)c3)nc21` [Compound 40, (2E)—N-[2-(2-{[(3,4-dichlorophenyl)methyl]amino}-6-(4-methoxyphenyl)-7-oxo(8-hydropteridin-8-yl))ethyl]but-2-enamide], inhibition was half-maximal at 470 nM (IC50).

`COc1ccc(-c2nc3cnc(NCc4ccc(Cl)c(Cl)c4)nc3n(CCNC=O)c2=O)cc1` [Compound 41, N-[2-(2-{[(3,4-dichlorophenyl)methyl]amino}-6-(4-methoxyphenyl)-7-oxo-8-hydropteridin-8-yl)ethyl]carboxamide] yielded a half-inhibitory concentration (IC50) of 260 nM.

As for `COc1ccc(-c2nc3cnc(NCc4ccc(Cl)c(Cl)c4)nc3n(CCNC(=O)c3cccc(F)c3)c2=O)cc1` [Compound 42, N-[2-(2-{[(3,4-dichlorophenyl)methyl]amino}-6-(4-methoxyphenyl)-7-oxo(8-hydropteridin-8-yl))ethyl](3-fluorophenyl)carboxamide], the concentration for half-maximal inhibition (IC50) is 2250 nM.

The values above are taken from patent US7662819B2, “Pteridinone derivatives for use as stearoyl CoA desaturase inhibitors” (Gilead Palo Alto, Inc., priority 2007, dated 2010).
